The NIST ThermoML archive (doi:10.1021/acs.jced.7b01053)
Values joined by “and” are separate entries in the source; they are usually repeats but may differ in a detail not shown here. Equal values may be shown once. Numbers after ± are expanded uncertainties.

Assay: mn = molality of the nth substance listed, in mol/kg
Conditions: 293 K, 100 kPa, Liquid, Alternating current cell with electrodes

CCC(=O)[O-].[NH3+]CCO [2-hydroxyethan-1-aminium propionate] + O
Conditions	electrical conductivity
m1 = 0.01786	0.107 ± 0.007 S/m
m1 = 0.022	0.116 ± 0.013 S/m
m1 = 0.03491	0.198 ± 0.015 S/m
m1 = 0.04447	0.218 ± 0.018 S/m
m1 = 0.05416	0.312 ± 0.022 S/m
m1 = 0.06841	0.338 ± 0.023 S/m
m1 = 0.0728	0.4 ± 0.039 S/m
m1 = 0.09126	0.43 ± 0.031 S/m
m1 = 0.0929	0.485 ± 0.036 S/m
m1 = 0.1121	0.574 ± 0.044 S/m
m1 = 0.1137	0.521 ± 0.039 S/m
m1 = 0.1322	0.658 ± 0.053 S/m
m1 = 0.1373	0.612 ± 0.049 S/m
m1 = 0.1504	0.74 ± 0.062 S/m
m1 = 0.1594	0.695 ± 0.057 S/m
m1 = 0.1692	0.821 ± 0.072 S/m
m1 = 0.1822	0.78 ± 0.067 S/m
m1 = 0.188	0.897 ± 0.081 S/m
m1 = 0.2038	0.845 ± 0.12 S/m
m1 = 0.2067	0.982 ± 0.13 S/m
m1 = 0.2263	0.921 ± 0.084 S/m
m1 = 0.2328	1.08 ± 0.11 S/m
m1 = 0.2472	0.991 ± 0.094 S/m
m1 = 0.2532	1.16 ± 0.12 S/m
m1 = 0.268	1.06 ± 0.1 S/m
m1 = 0.2729	1.24 ± 0.13 S/m
m1 = 0.2877	1.12 ± 0.17 S/m
m1 = 0.2905	1.3 ± 0.19 S/m
m1 = 0.3074	1.18 S/m and 1.37 S/m
m1 = 0.3237	1.43 ± 0.16 S/m
m1 = 0.3251	1.24 ± 0.13 S/m
m1 = 0.3388	1.48 ± 0.17 S/m
m1 = 0.3427	1.29 ± 0.14 S/m
m1 = 0.3534	1.53 ± 0.18 S/m
m1 = 0.3594	1.34 ± 0.15 S/m
m1 = 0.3669	1.58 ± 0.19 S/m
m1 = 0.3755	1.39 ± 0.16 S/m
m1 = 0.3798	1.63 ± 0.2 S/m
m1 = 0.3905	1.43 ± 0.16 S/m
m1 = 0.3917	1.67 ± 0.21 S/m
m1 = 0.4032	1.71 ± 0.29 S/m
m1 = 0.4055	1.48 ± 0.17 S/m
m1 = 0.4138	1.74 ± 0.22 S/m
m1 = 0.4195	1.51 ± 0.18 S/m
m1 = 0.424	1.78 ± 0.23 S/m
m1 = 0.4334	1.55 ± 0.19 S/m
m1 = 0.4465	1.59 ± 0.19 S/m
m1 = 0.4591	1.62 ± 0.2 S/m
m1 = 0.4709	1.65 ± 0.2 S/m
m1 = 0.4825	1.67 ± 0.21 S/m
m1 = 0.5351	1.82 ± 0.24 S/m
m1 = 0.5473	1.85 ± 0.25 S/m
m1 = 0.5594	1.89 ± 0.26 S/m
m1 = 0.5705	1.93 ± 0.26 S/m

CC(=O)[O-].[NH3+]CCO [2-hydroxyethylammonium acetate] + O
Conditions	electrical conductivity [S/m]
m1 = 0.02015	0.13 ± 0.008
m1 = 0.0241	0.138 ± 0.016
m1 = 0.03983	0.262 ± 0.02
m1 = 0.04796	0.274 ± 0.02
m1 = 0.05774	0.359 ± 0.027
m1 = 0.07416	0.45 ± 0.034
m1 = 0.07452	0.4 ± 0.029
m1 = 0.09015	0.539 ± 0.041
m1 = 0.09982	0.512 ± 0.038
m1 = 0.1057	0.618 ± 0.051
m1 = 0.1213	0.702 ± 0.057
m1 = 0.1267	0.628 ± 0.051
m1 = 0.1356	0.775 ± 0.068
m1 = 0.1485	0.835 ± 0.073
m1 = 0.1519	0.737 ± 0.063
m1 = 0.1621	0.9 ± 0.084
m1 = 0.1743	0.958 ± 0.089
m1 = 0.1778	0.847 ± 0.076
m1 = 0.1867	1.02 ± 0.1
m1 = 0.2004	1.08 ± 0.16
m1 = 0.2025	0.95 ± 0.15
m1 = 0.2157	1.14 ± 0.12
m1 = 0.2285	1.06 ± 0.1
m1 = 0.2326	1.21 ± 0.15
m1 = 0.2502	1.29 ± 0.14
m1 = 0.2521	1.16 ± 0.12
m1 = 0.2691	1.37 ± 0.15
m1 = 0.2755	1.23 ± 0.13
m1 = 0.2868	1.44 ± 0.17
m1 = 0.2977	1.33 ± 0.15
m1 = 0.3032	1.44 ± 0.17
m1 = 0.3189	1.48 ± 0.17
m1 = 0.3199	1.42 ± 0.16
m1 = 0.3337	1.56 ± 0.19
m1 = 0.3404	1.49 ± 0.17
m1 = 0.3476	1.61 ± 0.2
m1 = 0.3609	1.61 ± 0.2
m1 = 0.3615	1.57 ± 0.19
m1 = 0.3811	1.64 ± 0.21
m1 = 0.3855	1.75 ± 0.23
m1 = 0.4003	1.72 ± 0.22
m1 = 0.4075	1.86 ± 0.25
m1 = 0.4184	1.77 ± 0.23
m1 = 0.4279	1.93 ± 0.26
m1 = 0.4359	1.83 ± 0.24
m1 = 0.4463	1.98 ± 0.28
m1 = 0.4526	1.87 ± 0.25
m1 = 0.4627	2.03 ± 0.29
m1 = 0.4642	1.9 ± 0.26
m1 = 0.4774	2.08 ± 0.32
m1 = 0.4797	1.94 ± 0.29
m1 = 0.4943	1.99 ± 0.28
m1 = 0.5085	2.04 ± 0.29
m1 = 0.5221	2.09 ± 0.3
m1 = 0.5351	2.13 ± 0.31
m1 = 0.5473	2.17 ± 0.32
m1 = 0.5594	2.23 ± 0.34
m1 = 0.5705	2.27 ± 0.34

CC(=O)[O-].C[NH2+]CCO [N-methyl-2-hydroxyethylammonium acetate] + O
Conditions	electrical conductivity
m1 = 0.01579	0.077 ± 0.013 S/m
m1 = 0.01797	0.09 ± 0.013 S/m
m1 = 0.03269	0.14 ± 0.018 S/m
m1 = 0.03539	0.162 ± 0.019 S/m
m1 = 0.05165	0.21 ± 0.028 S/m
m1 = 0.05369	0.236 ± 0.029 S/m
m1 = 0.06943	0.29 ± 0.02 S/m
m1 = 0.07132	0.318 ± 0.022 S/m
m1 = 0.08822	0.356 ± 0.037 S/m
m1 = 0.09023	0.385 ± 0.039 S/m
m1 = 0.1063	0.507 ± 0.063 S/m
m1 = 0.1084	0.453 ± 0.061 S/m
m1 = 0.1255	0.561 ± 0.043 S/m
m1 = 0.1264	0.551 ± 0.042 S/m
m1 = 0.1433	0.607 ± 0.047 S/m
m1 = 0.1458	0.612 ± 0.048 S/m
m1 = 0.162	0.66 ± 0.053 S/m
m1 = 0.1641	0.665 ± 0.053 S/m
m1 = 0.1793	0.705 ± 0.058 S/m
m1 = 0.1809	0.713 ± 0.059 S/m
m1 = 0.1972	0.75 ± 0.063 S/m
m1 = 0.1983	0.762 ± 0.064 S/m
m1 = 0.2133	0.804 ± 0.069 S/m
m1 = 0.2134	0.787 ± 0.067 S/m
m1 = 0.2303	0.833 ± 0.073 S/m
m1 = 0.2308	0.838 ± 0.074 S/m
m1 = 0.2458	0.87 ± 0.078 S/m
m1 = 0.246	0.877 ± 0.079 S/m
m1 = 0.2615	0.899 ± 0.081 S/m
m1 = 0.2616	0.861 ± 0.076 S/m
m1 = 0.276	0.893 ± 0.081 S/m
m1 = 0.2762	0.942 ± 0.087 S/m
m1 = 0.2904	0.926 ± 0.085 S/m
m1 = 0.2909	0.968 ± 0.091 S/m
m1 = 0.3042	0.957 ± 0.089 S/m
m1 = 0.3044	0.998 ± 0.095 S/m
m1 = 0.3175	1.01 ± 0.097 S/m
m1 = 0.3178	1.03 ± 0.099 S/m
m1 = 0.3298	1.04 ± 0.1 S/m
m1 = 0.3302	1.04 ± 0.1 S/m
m1 = 0.3422	1.07 ± 0.1 S/m
m1 = 0.3425	1.08 ± 0.11 S/m
m1 = 0.354	1.11 ± 0.11 S/m
m1 = 0.3542	1.1 ± 0.11 S/m
m1 = 0.3654	1.13 S/m and 1.12 S/m
m1 = 0.376	1.16 ± 0.12 S/m
m1 = 0.3765	1.15 ± 0.12 S/m
m1 = 0.3868	1.17 ± 0.12 S/m
m1 = 0.3967	1.19 ± 0.12 S/m
m1 = 0.4065	1.21 ± 0.13 S/m
m1 = 0.4155	1.24 ± 0.13 S/m
m1 = 0.4245	1.27 ± 0.14 S/m

CCCC(=O)[O-].C[NH2+]CCO [N-methyl-2-hydroxyethylammonium butanoate] + O
Conditions	electrical conductivity [S/m]
m1 = 0.01443	0.041 ± 0.005
m1 = 0.01609	0.047 ± 0.005
m1 = 0.03059	0.077 ± 0.006
m1 = 0.03161	0.084 ± 0.006
m1 = 0.04718	0.115 ± 0.008
m1 = 0.04851	0.122 ± 0.008
m1 = 0.06311	0.149 ± 0.009
m1 = 0.06401	0.155 ± 0.01
m1 = 0.08077	0.185 ± 0.012
m1 = 0.08176	0.189 ± 0.012
m1 = 0.09698	0.232 ± 0.015
m1 = 0.09705	0.235 ± 0.015
m1 = 0.1139	0.268 ± 0.017
m1 = 0.1146	0.267 ± 0.017
m1 = 0.1298	0.298 ± 0.019
m1 = 0.1307	0.297 ± 0.019
m1 = 0.1464	0.324 ± 0.021
m1 = 0.1479	0.328 ± 0.022
m1 = 0.1614	0.35 ± 0.023
m1 = 0.1638	0.355 ± 0.024
m1 = 0.1771	0.372 ± 0.026
m1 = 0.1802	0.383 ± 0.026
m1 = 0.1918	0.395 ± 0.027
m1 = 0.1952	0.408 ± 0.028
m1 = 0.2064	0.42 ± 0.029
m1 = 0.2106	0.434 ± 0.03
m1 = 0.2201	0.44 ± 0.031
m1 = 0.2246	0.456 ± 0.032
m1 = 0.2336	0.46 ± 0.033
m1 = 0.2384	0.478 ± 0.034
m1 = 0.2466	0.48 ± 0.034
m1 = 0.2514	0.496 ± 0.036
m1 = 0.2596	0.498 ± 0.036
m1 = 0.2644	0.516 ± 0.038
m1 = 0.2712	0.513 ± 0.038
m1 = 0.2766	0.528 ± 0.039
m1 = 0.283	0.525 ± 0.039
m1 = 0.2887	0.542 ± 0.04
m1 = 0.294	0.54 ± 0.04
m1 = 0.2998	0.558 ± 0.042
m1 = 0.3048	0.556 ± 0.042
m1 = 0.311	0.572 ± 0.043
m1 = 0.3148	0.571 ± 0.043
m1 = 0.3214	0.586 ± 0.045
m1 = 0.3247	0.583 ± 0.045
m1 = 0.3317	0.6 ± 0.046
m1 = 0.334	0.596 ± 0.046
m1 = 0.3412	0.611 ± 0.047
m1 = 0.343	0.607 ± 0.047
m1 = 0.3505	0.624 ± 0.049
m1 = 0.3515	0.619 ± 0.048
m1 = 0.3593	0.634 ± 0.05
m1 = 0.3599	0.629 ± 0.049
m1 = 0.3677	0.639 ± 0.05
m1 = 0.3679	0.646 ± 0.051
m1 = 0.3758	0.656 ± 0.052
